According to patent publication US20210267944A1 (BioXcel Therapeutics, Inc., priority 2018, published 2021):
Structures can show the parent of a compound that is named as a salt. Where two headings read alike, the source gives them in different places.

Experiments:
[1] = human, in vivo
Source text: In addition, we assessed the following Secondary Objectives: • a. Determine how rapidly the drug can be administered up to the total dose needed to achieve RASS −1. • b. Determine how long the calming effect persists after discontinuation of study drug administration. • c. Determine whether any adverse effects on blood pressure, heart rate, or respiratory drive occurs before or coincident with the achievement of Primary Objective. Stopping rules for blood pressure and heart rate, indicating a clinically significant event, are: • 1. drop in systolic BP<90 mm of Hg. • 2. drop in diastolic BP<60 mm of Hg • 3. drop below 50 beats per minute
The participants were continuously monitored during the study by the site personnel, including monitoring blood pressure and heart rate. Intermittent electrocardiograms were taken from the start of the infusion through resolution of the sedation and/or any adverse effects on blood pressure or heart rate.
Return to baseline parameters is defined as BP falling within 15 mm of Hg of baseline reading prior to drug administration or HR falling within 10 beats per minute of baseline reading prior to drug administration.

[2] = human, in vivo; remark: listed apart in the source
[3] = schizophrenia study, one subject
Description: Adverse events (AEs), including serious adverse events (SAEs), were assessed, recorded, and reported in accordance with FDA guidance. Should any SAE occur, the study would be stopped until a cause for the SAE was determined.

[4] = SDAT
[5] = Post-ECG, After stopping of Dose

Cc1cccc([C@H](C)c2cnc[nH]2)c1C [dexmedetomidine hydrochloride]
Hemodynamic effects [1]: All
adverse effect on blood pressure (systolic and diastolic) and heart rate [1]: no adverse effect
infusion time at which stopping criteria of <60 mm Hg was met [1]: 135 min
Time to reach Cmax, range [2]: 15 to 105 min
AE Term [3]: Headache
AE Outcome ([3]; headache): Recovered
AE Relationship ([3]; headache): Possibly Related
AE Severity ([3]; headache): Moderate
QTc interval, Max [4, 5]: 592
QTc interval, Mean ± SD [4, 5]: 462.9 ± 73.04
QTc interval, Median [4, 5]: 441.0
QTc interval, Min [4, 5]: 370
QTc interval, Max ([4]; Pre-ECG, Before Dosing): 524
QTc interval, Mean ± SD ([4]; Pre-ECG, Before Dosing): 447.2 ± 35.51
QTc interval, Median ([4]; Pre-ECG, Before Dosing): 444.3
QTc interval, Min ([4]; Pre-ECG, Before Dosing): 398
